Drawing on PubChem BioAssay (NCI), this text covers TGI and GI50 for 13 compounds.

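Protocol summary: plate cells (96-well), add compound at 5 concentrations, incubate 48 h, interpolate endpoints linearly. GI50 marks 50% less growth. At the TGI there is no net growth.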 A value given as a limit tells only on which side of the number the result lay.

Among the test systems are EKVX NSCLC; HOP-92 NSCLC; HT29 colon; MALME-3M melanoma; OVCAR-8 ovarian; RPMI-8226 leukemia; SF-539 CNS; SN12C renal; UACC-257 melanoma; LOX IMVI melanoma.
What all share (assay): growth of human tumour cells (NCI), 48 h

`COc1ccc(CCc2cc(OC)c(O)c(OC)c2)cc1`: the TGI in the assay on EKVX NSCLC, with HOP-92 NSCLC, in the assay on HT29 colon, with MALME-3M melanoma, in the assay on OVCAR-8 ovarian and with RPMI-8226 leukemia was greater than 100 µM throughout. The TGI in the assay on SF-539 CNS was greater than 100 µM; in the assay on SN12C renal it was greater than 100 µM; in the assay with UACC-257 melanoma, 91.6 µM.

Regarding `C[Si](C)(C)C(Sc1ccccc1)(Sc1ccccc1)Sc1ccccc1`, the TGI was greater than 100 µM with EKVX NSCLC; 94.1 µM in the assay on HOP-92 NSCLC; greater than 100 µM in the assay on LOX IMVI melanoma; greater than 100 µM in the assay on OVCAR-8 ovarian; greater than 100 µM in the assay with RPMI-8226 leukemia; greater than 100 µM in the assay on SF-539 CNS. The TGI in the assay with SN12C renal and in the assay on UACC-257 melanoma was greater than 100 µM each time.

As to `COc1cnc2c(c1)C(=O)c1c-2n(CCCN2CCNCC2)c(=O)c2cc([N+](=O)[O-])ccc12`, the GI50 in the assay on EKVX NSCLC was 1.29 µM; in the assay with HOP-92 NSCLC, 1.25 µM; in the assay with HT29 colon it was 0.21 µM; with MALME-3M melanoma, 0.655 µM; in the assay with OVCAR-8 ovarian it was 0.314 µM; in the assay on RPMI-8226 leukemia, 0.301 µM. Besides, the GI50 in the assay with SF-539 CNS was 0.354 µM; with UACC-257 melanoma it was 3.49 µM. For the same compound, the TGI in the assay on EKVX NSCLC amounted to 2.69 µM; with HOP-92 NSCLC, 9.91 µM; in the assay with HT29 colon, 1.53 µM; in the assay on MALME-3M melanoma, 2.24 µM; with OVCAR-8 ovarian, 2.29 µM; in the assay with RPMI-8226 leukemia, 2.28 µM. For the same compound, the figures for the TGI in the assay on SF-539 CNS and with UACC-257 melanoma were 1.47 µM and 24.1 µM, respectively.

Take `COC(=O)C(=O)C(C(=O)C(=O)Nc1cc(C)ccc1C)c1nc2ccc(C(=O)c3ccccc3)cc2[nH]c1=O` (stereo unspecified): the TGI with EKVX NSCLC is greater than 100 µM; in the assay with HOP-92 NSCLC it was 91.8 µM; in the assay with MALME-3M melanoma, greater than 100 µM; with OVCAR-8 ovarian, greater than 100 µM; in the assay with RPMI-8226 leukemia it was greater than 100 µM; with SF-539 CNS, greater than 100 µM. Moreover, the TGI in the assay with SN12C renal and in the assay with UACC-257 melanoma was greater than 100 µM in each case.

On to `COC(=O)/C(=N\NC(N)=O)C(C(=O)C=C(C)C)C(=O)C(=O)Nc1ccc(Cl)c(Cl)c1` (stereo unspecified), for which the TGI in the assay on EKVX NSCLC, with HT29 colon, with LOX IMVI melanoma, in the assay on MALME-3M melanoma, with OVCAR-8 ovarian and in the assay on SF-539 CNS was greater than 100 µM in each case. Also, the TGI with SN12C renal and with UACC-257 melanoma was greater than 100 µM in each case.

Consider `C=C(CCCO)[C@@H]1CC[C@@](C)(O)[C@H]1C`, for which the TGI with EKVX NSCLC, in the assay on HT29 colon, with MALME-3M melanoma, in the assay on OVCAR-8 ovarian, in the assay on RPMI-8226 leukemia and in the assay with SF-539 CNS was greater than 100 µM each time. Besides, the TGI in the assay on SN12C renal and in the assay on UACC-257 melanoma was greater than 100 µM in each case.

Regarding `CN1CCN(Cc2cc(NC(=O)c3cccc(C#Cc4cccc5[nH]nc(N)c45)c3)cc(C(F)(F)F)c2)CC1`, the GI50 in the assay with EKVX NSCLC is 1.75 µM; in the assay on HOP-92 NSCLC it was 1.24 µM; in the assay on HT29 colon it was 1.53 µM; with MALME-3M melanoma it was 1.23 µM; in the assay on OVCAR-8 ovarian it was 1.85 µM; in the assay with RPMI-8226 leukemia, 2.12 µM. In addition, the GI50 with SF-539 CNS was 1.17 µM; with SN12C renal it was 1.66 µM; in the assay on UACC-257 melanoma, 1.83 µM. Further, the TGI is 3.26 µM with EKVX NSCLC; 2.63 µM in the assay on HOP-92 NSCLC; 2.93 µM in the assay with HT29 colon; 2.69 µM in the assay on MALME-3M melanoma; 3.62 µM in the assay on OVCAR-8 ovarian; 4.62 µM with RPMI-8226 leukemia. Further, the TGI with SF-539 CNS stood at 2.43 µM; in the assay on SN12C renal, 3.13 µM; in the assay with UACC-257 melanoma, 3.39 µM.

As for `CCOC(=O)C(=O)Nc1ccccc1C(C)C`, the TGI in the assay with EKVX NSCLC, in the assay on HOP-92 NSCLC, with HT29 colon, in the assay on MALME-3M melanoma, in the assay with OVCAR-8 ovarian and in the assay on RPMI-8226 leukemia was greater than 100 µM each time. Besides, the TGI in the assay on SF-539 CNS, in the assay on SN12C renal and in the assay on UACC-257 melanoma was greater than 100 µM in each case.

Consider `C/C(=N\NC(=O)CC(=O)N(C(=O)c1ccc(Cl)cc1)c1ccc(C)cc1)c1ccccc1O`, for which the TGI in the assay with EKVX NSCLC, with HT29 colon, in the assay on MALME-3M melanoma, in the assay on OVCAR-8 ovarian, in the assay on RPMI-8226 leukemia and with SF-539 CNS was greater than 100 µM each time. Besides, the TGI in the assay on SN12C renal and in the assay with UACC-257 melanoma was greater than 100 µM in each case.

`CCN(CC)CCNc1ccc2nc(C)n3c4ccc(O)cc4c(=O)c1c23`: the TGI with HT29 colon was 1.57 µM; in the assay with LOX IMVI melanoma it was 2.04 µM; in the assay with MALME-3M melanoma it was 16.4 µM; in the assay on OVCAR-8 ovarian it was 3.23 µM; in the assay on RPMI-8226 leukemia, 6.18 µM; with SF-539 CNS, 16.2 µM. The TGI in the assay with SN12C renal was determined as 12.4 µM; with UACC-257 melanoma, 21.2 µM.

As to `[CH3][Sn]([CH3])([CH3])[O][N+](=O)[O-]`, the GI50 was greater than 10 µM in the assay on EKVX NSCLC; 3.39 µM in the assay on HOP-92 NSCLC; 5.8 µM in the assay on HT29 colon; 2.52 µM in the assay on LOX IMVI melanoma; 3.6 µM with OVCAR-8 ovarian; 4.98 µM in the assay on RPMI-8226 leukemia. Further, the GI50 with SF-539 CNS was 2.48 µM; in the assay with SN12C renal, 1.78 µM; in the assay on UACC-257 melanoma, 6.81 µM. For the same compound, the TGI in the assay with EKVX NSCLC is greater than 10 µM; in the assay on HOP-92 NSCLC, greater than 10 µM; in the assay with HT29 colon it was greater than 10 µM; in the assay with LOX IMVI melanoma it was 6.63 µM; in the assay with OVCAR-8 ovarian, greater than 10 µM; in the assay on RPMI-8226 leukemia, greater than 10 µM. In addition, the results for the TGI in the assay on SF-539 CNS, with SN12C renal and with UACC-257 melanoma were 9.58 µM, 4.11 µM and greater than 10 µM, respectively.

As to `c1ccc(N/N=C2\NN=C(c3ccccc3)CS2)cc1`, the TGI with EKVX NSCLC came out at 37.4 µM; in the assay with HOP-92 NSCLC, 31.9 µM; in the assay with HT29 colon it was 24 µM; with LOX IMVI melanoma it was 15.3 µM; in the assay with OVCAR-8 ovarian it was 19.7 µM; in the assay on SF-539 CNS, 41.7 µM. The compound further showed a TGI in the assay with UACC-257 melanoma of 41.4 µM.

As to `C1C[OH+]CC[OH+]CCNCC[OH+]CC[OH+]CCN1.Cl.[Cl-].[Pt+4]`, the GI50 in the assay on EKVX NSCLC, in the assay with HOP-92 NSCLC, with HT29 colon, in the assay on LOX IMVI melanoma, with OVCAR-8 ovarian and in the assay with RPMI-8226 leukemia was greater than 100 µM throughout. Further, the GI50 in the assay with SF-539 CNS and in the assay with SN12C renal was greater than 100 µM in each case. The TGI with EKVX NSCLC, in the assay with HOP-92 NSCLC, in the assay with HT29 colon, in the assay on LOX IMVI melanoma, in the assay on OVCAR-8 ovarian and in the assay with RPMI-8226 leukemia was greater than 100 µM each time. Further, the TGI with SF-539 CNS and in the assay on SN12C renal was greater than 100 µM in each case.
